# Experimental data taken from patent US4298613A, “Agricultural heterocyclic sulfenamides” (E. I. Du Pont de Nemours and Company, priority 1980, dated 1981).
# Key:
# [1] = system: Rhizoctonia solani; test: Rhizoctonia solani control on cotton, simulated in-the-row soil application (Example 12); type: in vivo; settings: 15 kg/ha, 8 days
# Source text: Rhizoctonia solani-infested soil was placed in a 900 cc cup. Compounds of this invention were mixed at a rate of 15 kg/ha in a section 2" wide×2" deep×4" long to simulate an in-the-row application. Five cotton seeds were planted in the treated soil. After 8 days, the cotton plants were removed and rated for disease control.
# [2] = system: Venturia inaequalis; test: Control of apple scab in a preventive test (Example 13); type: in vivo; settings: 20 ppm, apple seedlings, incubated 10-12 days
# Procedure: (§1) Compounds of this invention are dissolved in acetone in an amount equal to 6% of the final volume and then suspended at a concentration of 20 ppm in purified water containing 25 ppm of the surfactant Alkanol® XC (sodium alkyl naphthalene sulfonate). This suspension is sprayed to the point of run-off on apple seedlings. The following day, the plants are inoculated with a spore suspension of the fungus Venturia inaequalis and incubated in a growth room for 10-12 days. Disease ratings are then made. […] Phytotoxicity in the form of foliar burn was observed on some of the plants in association with disease control.
# [3] = system: Venturia inaequalis; test: Control of apple scab in a residual wash-off test (Example 14); type: in vivo; settings: 20 ppm, apple seedlings, 1/2 inch simulated rainfall, incubated 10-12 days
# Procedure: as §1, with “day, 1/2 inch of simulated rainfall is applied to the foliage of the plants. When the foliage is dry,” for “day,”
# [4] = system: Venturia inaequalis; test: Control of apple scab in a photostability test (Example 15); type: in vivo; settings: 20 ppm, apple seedlings, 3500 foot candles xenon arc 16 hours, incubated 10-12 days
# Procedure: Compounds of this invention are dissolved in acetone in an amount equal to 6% of the final volume and then suspended at a concentration of 20 ppm in purified water containing 25 ppm of the surfactant Alkanol® XC (sodium alkyl naphthalene sulfonate). This suspension is sprayed to the point of run-off on apple seedlings. When the foliage is dry, the plants are exposed to 3500 foot candles of light from a xenon arc source for a period of 16 hours. This light source approximates the spectrum of natural sunlight, and is used to assess photostability of the compounds of this invention on plant foliage. The following day, the plants are inoculated with a spore suspension of the fungus Venturia inaequalis and incubated in a growth room for 10-12 days. Disease ratings are then made. As shown in the following table, most of the compounds of this invention provided good disease control as the treated plants had fewer apple scab lesions in contrast to untreated plants which were covered with scab lesions. Phytotoxicity in the form of foliar burn was observed on some of the plants in association with disease control.
# [5] = system: Erysiphe cichoracearum; test: Control of cucumber powdery mildew in a preventive test (Example 16); type: in vivo; settings: 20 ppm, cucumber seedlings, incubated 7 days
# Procedure: (§2) Compounds of this invention are dissolved in acetone in an amount equal to 6% of the final volume and then suspended at a concentration of 20 ppm in purified water containing 25 ppm of the surfactant Alkanol® XC (sodium alkyl naphthalane sulfonate). This suspension is sprayed to the point of run-off on cucumber seedlings. The following day, the plants are inoculated with a spore suspension of the fungus Erysiphe cichoracearum and incubated in a growth room for 7 days. Disease ratings are then made.
# [6] = system: Erysiphe cichoracearum; test: Control of cucumber powdery mildew in a residual wash-off test (Example 17); type: in vivo; settings: 20 ppm, cucumber seedlings, 1/2 inch simulated rainfall, incubated 7 days
# Procedure: as §2, with “naphthalene” for “naphthalane”, “day, 1/2 inch of simulated rainfall is applied to the foliage of the plants. When the foliage is dry,” for “day,”
# [7] = system: Erysiphe cichoracearum; test: Control of cucumber powdery mildew in a photostability test (Example 18); type: in vivo; settings: 20 ppm, cucumber seedlings, 3500 foot candles xenon arc 16 hours, incubated 7 days
# Procedure: as §2, with “alkyl naphthalene” for “alkyl naphthalane”, “run-off in” for “run-off on”, “seedlings. When the foliage is dry, the plants are exposed to 3500 foot candles of light from a xenon arc source for a period of 16 hours. This light source approximates the spectrum of natural sunlight, and is used to assess photostability of the compounds of this invention on plant foliage.” for “seedlings.”
# [8] = system: Puccinia graminis var. tritici; type: in vivo; settings: 20 ppm, wheat seedlings, 24 hours humidity chamber at 20° C. then 7 days
# [9] = system: Puccinia graminis var. tritici; type: in vivo; settings: 20 ppm, wheat seedlings, 1/2 inch simulated rainfall, 24 hours humidity chamber then 7 days
# [10] = system: Puccinia graminis var. tritici; type: in vivo; settings: 20 ppm, wheat seedlings, 3500 foot candles xenon arc 16 hours, 24 hours humidity chamber then 7 days
# [11] = system: Phytophthora infestans; settings: 5 ppm, tomato seedlings, incubated 4 days
# [12] = system: Helminthosporium oryzae; test: Control of rice Helminthosporium in a seed treatment test (Example 11); settings: 1.3 g per kilogram of seed, 18 days, rating based on percent germination
# Procedure: Rice seed infected with Helminthosporium oryzae are treated with compounds of this invention at a rate of 1.3 g per kilogram of seed. This is accomplished by soaking infected seed for 1 minute in a suspension of the indicated compound dissolved in a solution containing 4% glycerine, 4% water, 0.02% Tween®20*, and 92% acetone. Treated seeds are placed on moist blotters and enclosed in plastic bags for 18 days at which time disease ratings are made based on percent germination.
# *Tween®20 is a trademark of ICI Americas, Inc. and consists of polyoxytheylene (20) sorbitan monolaurate.
# [13] = system: two spotted mites; test: Two-spotted mite mortality on red kidney bean plants (Example 9); type: in vivo; settings: Tetranychus urticae, 48 h, read-out: % Mortality (2 days)
# Procedure: Test units consisted of plant pots containing two red kidney bean plants in the two-leaf stage per pot. The plants were infested with two spotted mites and sprayed to run-off with dispersions of N-[2-chloro-5-(trifluoromethyl)phenyl]-N-[2,4-dinitro-6-(trifluoromethyl)phenyl]-3-nitro-2-pyridinesulfenamide at the indicated concentrations. Dispersions were made by dissolving weighed quantities of the active ingredients in 10 ml of acetone and then diluting to volume with water containing 1:3000 of a surfactant, DuPonol® (a tradename of E. I. du Pont de Nemours & Co. for sodium alcohol sulfonate). Mortality was evaluated two days after spraying.
# [14] = system: house fly adults; test: House fly adult mortality (Example 10); type: in vivo, Musca domestica (house fly); settings: concentration .01 (unit not given), acetone dispersion, 1 day, 25°±2° C., 50% RH
# Procedure: Twenty-five house fly adults are secured in screened stainless steel ring cages and treated with acetone dispersions of N-[2-chloro-5-(trifluoromethyl)-phenyl]-N-[2,4-dinitro-6-(trifluoromethyl)phenyl]-3-nitro-2-pyridinesulfenamide at the indicated concentrations. The stock dispersion is prepared by dissolving appropriately weighed quantities of active ingredient in predetermined quantities of acetone. Further diluting with acetone yields the desired concentrations. After treating, the units are kept in a room maintained at 25°±2° C., 50% RH. Results are recorded at the end of 1 day.
SMILES,% Rhizoctonia solani control [1],% Control Apple Scab in a Preventive Test [2],% Control of Apple Scab in a Residual Wash-Off Test [3],% Control Apple Scab in a Photo-stability test [4],% Control Cucumber Powdery Mildew in a Preventive Test [5],% Control Cucumber Powdery Mildew in a Residual Wash-Off Test [6],% Control Cucumber Powdery Mildew in a Photostability Test [7],% Control Wheat Rust in a Preventive Test [8],% Control Wheat Rust in a Residual Wash-off Test [9],% Control Wheat Rust in a Photostability Test [10],% Control Tomato Late Blight in a Preventive Test [11],% Control of rice Helminthosporium in a seed treatment test [12],mortality at 0.00025 % [13],% Mortality [14]
"O=[N+]([O-])c1cc([N+](=O)[O-])c(N(Sc2nc3ccccc3s2)c2cc(C(F)(F)F)ccc2Cl)c(C(F)(F)F)c1 [N-[2-chloro-5-(trifluoromethyl)phenyl]-N-[2,4-dinitro-6-(trifluoromethyl)phenyl]-2-benzothiazolesulfenamide]",50%,43%,43%,15%,60%,68%,15%,97%,85%,83%,0%,0%,–,–
"O=[N+]([O-])c1cc([N+](=O)[O-])c(N(Sc2ncccc2[N+](=O)[O-])c2cc(C(F)(F)F)ccc2Cl)c(C(F)(F)F)c1 [N-[2-chloro-5-(trifluoromethyl)phenyl]-N-[2,4-dinitro-6-(trifluoromethyl)phenyl]-3-nitro-2-pyridinesulfenamide]",100%,100%,100%,70%,100%,90%,94%,80%,98%,95%,70%,90%,100%,90%
